Data set [1] has as its target T1, Histamine H3 receptor (Homo sapiens, UniProt Q9Y5N1). The experiment in a line: Displacement of [3H]R-alpha-methyl histamine from recombinant human H3 receptor. Background: Loss of bound radioactivity is the signal in a displacement assay; it reports binding, not function.
Data set [2] addresses Cytochrome P450 2D6 (Homo sapiens, UniProt P10635). As to the kind of experiment: Inhibition of human CYP2D6 after 12 mins by LC-MS/MS analysis. The class given is ADME.
The target of data set [3] is Cytochrome P450 3A4 (Homo sapiens, UniProt P08684). As to the kind of experiment: Inhibition of human CYP3A4 after 2 mins by LC-MS/MS analysis. The class given is ADME.
Cytochrome P450 3A4, sequence (P08684 whole entry): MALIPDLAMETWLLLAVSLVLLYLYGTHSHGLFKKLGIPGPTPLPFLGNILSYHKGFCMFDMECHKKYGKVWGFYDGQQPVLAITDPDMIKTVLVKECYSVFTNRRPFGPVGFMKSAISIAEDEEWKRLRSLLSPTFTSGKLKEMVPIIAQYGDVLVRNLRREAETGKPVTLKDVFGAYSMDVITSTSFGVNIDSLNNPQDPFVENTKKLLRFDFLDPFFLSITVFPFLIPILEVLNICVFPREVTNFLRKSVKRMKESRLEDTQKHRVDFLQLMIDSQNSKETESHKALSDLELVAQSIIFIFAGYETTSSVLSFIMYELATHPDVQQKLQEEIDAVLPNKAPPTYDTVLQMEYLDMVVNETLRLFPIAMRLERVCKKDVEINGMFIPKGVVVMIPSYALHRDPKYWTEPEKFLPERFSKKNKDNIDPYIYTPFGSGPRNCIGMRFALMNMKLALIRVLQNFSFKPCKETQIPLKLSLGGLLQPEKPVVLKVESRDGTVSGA
The nature of data set [4]: Drug uptake in Wistar rat brain at 10 mg/kg, po after 1 hr by LC-MS/MS analysis. The class given is ADME, organism-based. The conditions noted are these: read-out: Drug uptake.
The target of data set [5] is T1, Histamine H3 receptor. As to the kind of experiment: Binding affinity to recombinant human H3 receptor.
The nature of data set [6]: Metabolic stability in human liver microsomes assessed as compound metabolized after 30 mins by LC-MS/MS analysis. The conditions noted are these: read-out: Drug metabolism. In kind it is ADME. On the technique in general: Liver microsomes are a subcellular fraction often used to study metabolism.
The test system of data set [7] is Rattus norvegicus. As to the kind of experiment: Apparent volume of distribution in fasted Wistar rat at 3 mg/kg, iv by LC-MS/MS analysis. In kind it is ADME, organism-based. The conditions noted are these: in vivo.
Data set [8] is described as follows: Ratio of drug level in brain to blood in Wistar rat at 10 mg/kg, po by LC-MS/MS analysis.
The nature of data set [9]: Plasma concentration in Wistar rat at 10 mg/kg, po after 1 hr by LC-MS/MS analysis. In kind it is ADME, organism-based.
Data set [10] can be described thus: Drug uptake in Wistar rat brain at 30 mg/kg, po after 1 hr by LC-MS/MS analysis. In kind it is ADME, organism-based. The settings on record: read-out: Drug uptake.
Data set [11] in a line: Plasma concentration in Wistar rat at 30 mg/kg, po after 1 hr by LC-MS/MS analysis. In kind it is ADME, organism-based.
The target of data set [12] is T1, Histamine H3 receptor. As to the kind of experiment: Antagonist activity at recombinant human H3 receptor expressed on CHO-K1 cells assessed as cAMP level by luciferase gene reporter assay. The class given is functional, cell-based. For orientation: cAMP levels reflect the balance of adenylyl cyclase and phosphodiesterase activity.
The subject of data set [13] is Rattus norvegicus. The experiment in a line: Oral bioavailability in fasted Wistar rat at 3 mg/kg by LC-MS/MS analysis. In kind it is ADME, organism-based. The conditions noted are these: in vivo.
In data set [14] the test system is Rattus norvegicus. The experiment in a line: In vivo receptor occupancy at histamine H3 receptor in po dosed Wistar rat by LC-MS/MS analysis. In kind it is functional.
In data set [15] the target is T2, hERG (KCNH2) (Homo sapiens, UniProt Q12809). As to the kind of experiment: Inhibition of human ERG at 1 uM by scintillation counting method.
T2 sequence (Q12809 whole entry): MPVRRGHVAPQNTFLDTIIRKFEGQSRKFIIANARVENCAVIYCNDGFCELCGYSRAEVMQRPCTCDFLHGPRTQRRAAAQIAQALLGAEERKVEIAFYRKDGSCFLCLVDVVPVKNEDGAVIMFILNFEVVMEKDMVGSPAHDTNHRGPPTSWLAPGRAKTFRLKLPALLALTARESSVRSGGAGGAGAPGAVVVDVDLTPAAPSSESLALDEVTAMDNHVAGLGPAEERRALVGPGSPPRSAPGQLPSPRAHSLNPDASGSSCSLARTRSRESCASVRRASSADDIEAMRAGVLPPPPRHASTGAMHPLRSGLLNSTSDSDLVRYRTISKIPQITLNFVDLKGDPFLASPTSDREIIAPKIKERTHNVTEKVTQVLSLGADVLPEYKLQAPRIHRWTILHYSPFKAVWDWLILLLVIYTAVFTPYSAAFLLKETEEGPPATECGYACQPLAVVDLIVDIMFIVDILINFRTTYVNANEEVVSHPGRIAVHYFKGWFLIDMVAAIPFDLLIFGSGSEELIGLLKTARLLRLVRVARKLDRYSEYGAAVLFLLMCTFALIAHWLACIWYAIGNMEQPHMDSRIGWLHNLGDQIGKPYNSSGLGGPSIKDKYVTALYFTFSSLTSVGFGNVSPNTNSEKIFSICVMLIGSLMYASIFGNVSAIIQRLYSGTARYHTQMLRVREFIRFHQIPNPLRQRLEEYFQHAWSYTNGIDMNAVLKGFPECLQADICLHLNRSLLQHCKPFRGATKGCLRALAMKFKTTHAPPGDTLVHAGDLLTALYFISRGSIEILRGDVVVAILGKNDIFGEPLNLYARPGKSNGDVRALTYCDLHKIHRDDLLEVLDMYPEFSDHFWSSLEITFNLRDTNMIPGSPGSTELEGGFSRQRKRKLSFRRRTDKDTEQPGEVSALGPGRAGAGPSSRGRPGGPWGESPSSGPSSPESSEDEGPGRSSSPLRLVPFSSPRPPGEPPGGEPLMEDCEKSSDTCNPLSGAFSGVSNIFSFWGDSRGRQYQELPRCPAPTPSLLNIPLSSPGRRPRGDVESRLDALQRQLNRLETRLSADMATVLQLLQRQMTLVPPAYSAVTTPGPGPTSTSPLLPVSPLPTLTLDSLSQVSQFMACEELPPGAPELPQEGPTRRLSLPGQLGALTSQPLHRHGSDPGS
Data set [16] can be described thus: Cmax in fasted Wistar rat at 3 mg/kg, po by LC-MS/MS analysis. The class given is ADME, organism-based. Details: dose 3 mg/kg, route oral. The settings on record: in vivo.
Data set [17] has as its system Rattus norvegicus. The experiment in a line: AUCt in fasted Wistar rat at 3 mg/kg, po by LC-MS/MS analysis. In kind it is ADME, organism-based. The settings on record: in vivo.
Data set [18] in a line: Metabolic stability in rat liver microsomes assessed as compound metabolized after 30 mins by LC-MS/MS analysis. In kind it is ADME. The conditions noted are these: read-out: Drug metabolism.
Data set [19] concerns the target T2, hERG (KCNH2). As to the kind of experiment: Inhibition of human ERG at 10 uM by scintillation counting method.
Data set [20] is described as follows: Plasma concentration in Wistar rat at 3 mg/kg, po after 1 hr by LC-MS/MS analysis. In kind it is ADME, organism-based.
The nature of data set [21]: Drug uptake in Wistar rat brain at 3 mg/kg, po after 1 hr by LC-MS/MS analysis. The conditions noted are these: read-out: Drug uptake. In kind it is ADME, organism-based.
The subject of data set [22] is Rattus norvegicus. As to the kind of experiment: Half life in fasted Wistar rat at 5 mg/kg, iv by LC-MS/MS analysis. In kind it is ADME, organism-based. The conditions noted are these: in vivo.
Data set [23] has as its system Rattus norvegicus. The experiment in a line: Oral bioavailability in fasted Wistar rat at 5 mg/kg by LC-MS/MS analysis. The class given is ADME, organism-based. The settings on record: in vivo.
The nature of data set [24]: Cmax in fasted Wistar rat at 5 mg/kg, po by LC-MS/MS analysis. The class given is ADME, organism-based. More on the design: dose 5 mg/kg, route oral. The settings on record: in vivo.
In data set [25] the test system is Rattus norvegicus. As to the kind of experiment: AUCt in fasted Wistar rat at 5 mg/kg, po by LC-MS/MS analysis. The class given is ADME, organism-based. The settings on record: in vivo.

Here are results for 28 compounds from ChEMBL document CHEMBL3751729, “Benzamide derivatives and their constrained analogs as histamine H3 receptor antagonists” (Eur J Med Chem, 2016).

Where only a bound is given, the exact number is not on record here.

T1 sequence (Q9Y5N1 whole entry): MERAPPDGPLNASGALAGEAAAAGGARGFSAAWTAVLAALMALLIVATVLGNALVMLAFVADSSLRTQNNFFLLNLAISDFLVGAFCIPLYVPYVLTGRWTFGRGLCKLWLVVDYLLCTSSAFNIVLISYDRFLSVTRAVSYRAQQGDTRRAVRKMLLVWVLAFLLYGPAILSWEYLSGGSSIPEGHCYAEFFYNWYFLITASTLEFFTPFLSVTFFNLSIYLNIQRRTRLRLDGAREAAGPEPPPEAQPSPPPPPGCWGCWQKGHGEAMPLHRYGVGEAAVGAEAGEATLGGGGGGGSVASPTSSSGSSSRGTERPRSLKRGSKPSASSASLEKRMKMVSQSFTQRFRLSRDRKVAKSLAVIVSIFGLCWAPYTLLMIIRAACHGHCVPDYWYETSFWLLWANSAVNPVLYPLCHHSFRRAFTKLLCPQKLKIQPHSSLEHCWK
Cytochrome P450 2D6, sequence (P10635 whole entry): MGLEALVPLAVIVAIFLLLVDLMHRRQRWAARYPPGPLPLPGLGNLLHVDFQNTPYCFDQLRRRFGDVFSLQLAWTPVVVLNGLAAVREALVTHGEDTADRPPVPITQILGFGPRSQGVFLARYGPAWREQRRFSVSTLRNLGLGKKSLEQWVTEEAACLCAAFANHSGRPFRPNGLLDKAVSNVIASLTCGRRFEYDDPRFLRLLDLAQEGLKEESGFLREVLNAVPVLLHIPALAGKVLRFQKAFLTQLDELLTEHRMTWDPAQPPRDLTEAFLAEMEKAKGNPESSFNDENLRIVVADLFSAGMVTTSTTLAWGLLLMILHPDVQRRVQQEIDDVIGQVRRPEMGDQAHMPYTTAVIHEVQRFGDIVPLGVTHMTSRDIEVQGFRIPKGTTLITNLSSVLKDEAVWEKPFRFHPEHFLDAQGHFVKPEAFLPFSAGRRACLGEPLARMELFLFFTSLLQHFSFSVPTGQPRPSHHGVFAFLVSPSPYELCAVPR

The Ki is the equilibrium dissociation constant of an inhibitor or competing ligand from its target. As to `CC(C)N1CCC(Oc2ccc(C(=O)NC3CCN(C4CCC4)CC3)c(F)c2)CC1`, the Ki in data set [1] was 10.5 nM.

One may read the IC50 as the point on the concentration scale where inhibition reaches its midpoint. Consider `CC(C)N1CCC(NC(=O)c2ccc(OC3CCN(C4CCC4)CC3)cc2)C1` (stereo not drawn), for which the IC50 in data set [2] and in data set [3] was above 30000 nM in each case.

For orientation: Kp means tissue or fluid exposure divided by exposure in the circulation. The term ED50 denotes the dose at which the effect has come halfway, by size or by number of responders. Higher therefore signals a need for a large dose. By inhibition is commonly meant the percentage by which the read-out fell short of the control. Lower therefore signals little suppression. As usually defined, the Cmax is the peak of the concentration-time curve. For the compound `O=C1c2ccc(OC3CCN(C4CCC4)CC3)cc2CCN1C1CCN(C2CCC2)CC1`, the concentration at 1 h in [4] was 175 ng/g; in [9] it was 15.7 ng/mL; in data set [10], 765 ng/g; in data set [11], 76.3 ng/mL; in [20] it was 3.7 ng/mL; in data set [21], 28.5 ng/g. The Ki is 0.03 nM in data set [5] and 0.8 nM in data set [1]. The metabolised at 0.5 h in data set [6] came to 10%; in data set [18], 6%. In addition, the Vz in data set [7] amounted to 13 L/kg. Besides, in data set [8], the Kp is 0.54. Besides, the IC50 in data set [12] was found to be 4.8 nM. Moreover, the F in data set [13] came to 27%. In data set [14], the Activity entry is “Dose-dependent effect”. The compound also came in with an ED50 in data set [14] of 15.5 mg/kg. The same compound gave an inhibition at 1 µM in data set [15] of 23%. This compound also registered a Cmax in [16] of 80 ng/mL. Besides, the AUCt in data set [17] was determined as 1429 ng·h/mL. Also, the inhibition at 10 µM in [19] worked out at 26%.

`CC(C)N1CCC(Oc2ccc3c(c2)CCN(C2CCN(C(C)C)C2)C3=O)CC1` (racemic): in data set [1], the Ki turned out to be 2.1 nM.

As for `CC(C)N1CCC(NC(=O)c2ccc(OC3CCN(C(C)C)CC3)cc2)CC1`, the Ki in [1] worked out at 8.3 nM.

Regarding `CC(C)CN1CCC(NC(=O)c2ccc(OC3CCN(C(C)C)CC3)cc2)C1` (racemic), the Ki in data set [1] turned out to be 1 nM.

On to `CC(C)N1CCC(NC(=O)c2ccc(OC3CCN(C4CCCC4)CC3)cc2)C1` (racemic), for which, in data set [1], the Ki was 8.6 nM.

Consider `Cc1cc(OC2CCN(C(C)C)CC2)ccc1C(=O)NC1CCN(C2CCC2)C1` (racemic), for which, in data set [1], the Ki was 9.2 nM.

As for `CC(C)CN1CCC(NC(=O)c2ccc(OC3CCN(C(C)C)CC3)cc2)C1` (stereo not drawn), the Ki in data set [5] stood at 1.2 nM. Moreover, in data set [22], the t1/2 was 17.51 h. The metabolised at 0.5 h in data set [6] turned out to be 18%; in data set [18] it was 8%. Besides, the F in data set [23] was 81%. The concentration in [24] peaked (Cmax) at 18 ng/mL. Moreover, the AUCt in data set [25] amounted to 281 ng·h/mL. Besides, the IC50 in data set [12] was 459 nM. For the same compound, in data set [19], the inhibition at 10 µM stood at 35%.

For the compound `CC(C)N1CCC(NC(=O)c2ccc(OC3CCN(C4CCCC4)CC3)cc2)C1` (stereo not drawn), the inhibition constant (Ki) in data set [5] turned out to be 1 nM. Moreover, the IC50 in data set [12] was determined as 274 nM.

For the compound `CC(C)N1CCC(Oc2ccc(C(=O)NC3CCN(C4CCC4)C3)cc2)CC1` (racemic), the Ki in data set [1] is 2.5 nM.

Turning to `CC(C)N1CCC(NC(=O)c2ccc(OC3CCN(C(C)C)CC3)cc2F)CC1`, the Ki in data set [1] was determined as 11.4 nM.

With `CC(C)N1CCC(NC(=O)c2ccc(OC3CCN(C4CCC4)CC3)cc2Cl)CC1`, in [1], the inhibition constant Ki is 7 nM.

With `Cc1cc(C(=O)NC2CCN(C(C)C)C2)ccc1OC1CCN(C(C)C)CC1` (racemic), the Ki in data set [1] was 1360 nM.

Turning to `O=C1CCCN1c1ccc(Oc2ccc3c(c2)CCN(C2CCC2)CC3)nc1` [GSK239512], the Ki in [5] was found to be 10 nM.

Take `CC(C)N1CCC(Oc2ccc3c(c2)CCN(C2CCN(C(C)C)C2)C3=O)CC1` (stereo not drawn): the Ki in data set [5] was found to be 0.1 nM. Besides, in data set [12], the half-maximal inhibitory concentration (IC50) turned out to be 14.3 nM.

On to `CC(C)N1CCC(Oc2ccc3c(c2)CCN(C2CCN(C4CCC4)CC2)C3=O)CC1`, for which the Ki in data set [1] came out at 1.8 nM.

As to `CC(C)N1CCC(Oc2ccc(C(=O)NC3CCN(C(C)C)C3)cc2)CC1` (stereo not drawn), the Ki in data set [5] is 0.9 nM. In [22], this compound gave a t1/2 of 11.67 h. The metabolised at 0.5 h in data set [6] was 12%; in data set [18], 4%. This compound displayed a F in data set [23] of 75%. Further, the Cmax in [24] came out at 122 ng/mL. In addition, the IC50 in data set [2] was above 45000 nM; in data set [12], 324 nM; in data set [3] it was above 45000 nM. Moreover, in [25], the AUCt amounted to 444 ng·h/mL. In addition, the inhibition at 1 µM in [15] came out at 21%.

In the case of `CC(C)N1CCC(Oc2ccc(C(=O)NC3CCN(C4CCC4)C3)c(Cl)c2)CC1` (racemic), the Ki in [1] was 18.4 nM.

For the compound `CC(C)N1CCC(Oc2ccc(C(=O)NC3CCN(C(C)C)C3)cc2)CC1` (racemic), the Ki in data set [1] is 5.7 nM.

Take `CC(C)N1CCC(NC(=O)c2ccc(OC3CCN(C4CCC4)CC3)cc2)C1` (racemic): the Ki in [1] stood at 26.9 nM.

In the case of `CC(C)N1CCC(Oc2ccc(C(=O)NC3CCN(C4CCC4)C3)c(F)c2)CC1` (racemic), the Ki in data set [1] is 5.7 nM.

For the compound `CC(C)N1CCC(Oc2ccc(C(=O)NC3CCN(C4CCC4)C3)cc2F)CC1` (racemic), the Ki in data set [1] turned out to be 7.3 nM.

As to `O=C(NC1CCN(C2CCC2)CC1)c1ccc(OC2CCN(C3CCC3)CC2)cc1Cl`, in data set [1], the Ki was 6.7 nM.

As to `CC(C)N1CCC(NC(=O)c2ccc(OC3CCN(C4CCC4)CC3)cc2)CC1`, the Ki in data set [1] amounted to 1.6 nM.

Consider `Cc1cc(C(=O)NC2CCN(C3CCC3)C2)ccc1OC1CCN(C(C)C)CC1` (racemic), for which the Ki in [1] worked out at 384 nM.

With `CC(C)N1CCC(NC(=O)c2ccc(OC3CCOCC3)cc2)C1` (racemic), the Ki in data set [1] was 103 nM.

As to `CC(C)N1CCC(Oc2ccc3c(c2)CCN(C2CCN(C4CCC4)C2)C3=O)CC1` (racemic), the Ki in data set [1] came to 1.2 nM.
